Experiments:
[1] = tested on: sox1α, sox2, sox3, and her6; assay: Test Example 1: quantitative PCR of neural stem cell markers in brains of treated zebrafish; assay type: in vivo; conditions: brain of treated zebrafish individuals; ΔΔCt; vs control
Experimental: Moreover, the brains of the treated zebrafish individuals were dissected and washed with sterile distilled water, and then crushed by pipetting or 1 ml syringe suction discharge with 18 G to 24 G needles in 500 μl of Sepasol-RNA I Super G (Nacalai Tesque). A deproteinization operation was conducted once by equivalent phenol/chloroform treatment and once by chloroform treatment, and the supernatant was subjected to RNA purification using an RNA purification column (RNeasy Plus Mini Kit, Qiagen). The elute was reverse-transcribed using a mixed primer of random hexamer and oligo-dT (ReverTra Ace qPCR Kit, TOYOBO) at 37° C. for 15 minutes and 98° C. for 5 minutes, and quantitative PCR of expression levels of sox1α, sox2, sox3, and her6, which are markers of neural stem cells, was performed. Quantitative PCR was performed with SYBER Green Realtime PCR Master Mix (TOYOBO). For the PCR reaction, ABI PRISM 7700 or LightCycler from Roche Diagnostics K.K. was used. Quantification was performed in 3 wells per identical sample (n=3). The obtained data was comparatively quantified by a ΔΔCt method using a normalizer (β-actin, GAPDH, 18S, or the like). In order to confirm that the quantitative reaction was reliable, it was confirmed that the amplification product was in a band by agarose electrophoresis.

Purkinje cells = assay: Test Example 6: increase in Purkinje cells of adult mouse after injection into E11.5 fetal ventricle; assay type: in vivo; conditions: test compounds = Compounds 1 to 7; 100 μM injected into E11.5 fetal ventricle, counted in adult mice; vs control; N=10
Experimental: A solution prepared by dissolving 100 μM of the test compound in physiological saline was injected into E11.5 mouse fetal ventricle. Brains of adult mouse individuals were fixed, and slice sections of cerebellar Purkinje cell layers were immunostained with an anti-d-Calbindin antibody, which is a marker of cell bodies and neurites of Purkinje cells. After staining, the number of Purkinje cells was counted, and the average value thereof was calculated.
As a control experiment (control), a similar experiment was performed using physiological saline containing no test compound.
The number of samples is 10 for each of Compounds 1 to 7 and control (N=10).

CNS(=O)(=O)c1ccccc1Nc1nc(Nc2ccc(N3CCN(C)CC3)cc2OC)ncc1Cl [Compound 7, 2-[[5-Chloro-2-[2-methoxy-4-(4-methylpiperazin-1-yl)anilino]pyrimidin-4-yl]amino]-N-methylbenzenesulfonamide]
expression levels of sox1α, sox2, sox3, and her6 (quantitative PCR) [1]: significant increase in expression levels
number of Purkinje cells in the cerebellar Purkinje cell layers (Purkinje cells): significantly higher than that of the control
